From patent US20170035049A1, “BIOCIDAL PRODUCTS” (SALVECO, priority 2014, published 2017)

Assay: Ultimate aerobic biodegradability in aqueous medium (OECD 301 A)
Conditions: on the fourteenth day
Description: This test is an evaluation in an aqueous medium of the ultimate aerobic biodegradability of a sample of the concentrated formulation according to the invention. This test is performed according to the provisions of the OECD 301 A method using a sample containing a dissolved organic carbon content of 10 mg/l (DOC for dissolved organic carbon). The evolution of the disappearance of dissolved organic carbon is followed during a period of 28 days in the “Concentrated disinfection” test at 10 mg/l of DOC. The physical-chemical analysis is performed according to the ASTM […] standard. The attached FIG. 1 represents the resulting curves of degradation of the organic carbon dissolved after 28 days. The reference substance corresponds to sodium acetate.

## CC(=O)[O-].[Na+] [sodium acetate]
  percentage of degradation of the reference substance: 99%
